{"source": "patent US10377770B2", "about": "(Novartis AG, priority 2015, dated 2019)", "note": "pIC50: −log10 of the molar value."}
{"target": "C-Raf FL (full length CRAF with Y340E and Y341E activating mutations, co-expressed with h14-3-3 zeta) (Homo sapiens (Human), UniProt P04049, Y340E/Y341E)", "sequence (P04049 whole entry Y340E/Y341E)": "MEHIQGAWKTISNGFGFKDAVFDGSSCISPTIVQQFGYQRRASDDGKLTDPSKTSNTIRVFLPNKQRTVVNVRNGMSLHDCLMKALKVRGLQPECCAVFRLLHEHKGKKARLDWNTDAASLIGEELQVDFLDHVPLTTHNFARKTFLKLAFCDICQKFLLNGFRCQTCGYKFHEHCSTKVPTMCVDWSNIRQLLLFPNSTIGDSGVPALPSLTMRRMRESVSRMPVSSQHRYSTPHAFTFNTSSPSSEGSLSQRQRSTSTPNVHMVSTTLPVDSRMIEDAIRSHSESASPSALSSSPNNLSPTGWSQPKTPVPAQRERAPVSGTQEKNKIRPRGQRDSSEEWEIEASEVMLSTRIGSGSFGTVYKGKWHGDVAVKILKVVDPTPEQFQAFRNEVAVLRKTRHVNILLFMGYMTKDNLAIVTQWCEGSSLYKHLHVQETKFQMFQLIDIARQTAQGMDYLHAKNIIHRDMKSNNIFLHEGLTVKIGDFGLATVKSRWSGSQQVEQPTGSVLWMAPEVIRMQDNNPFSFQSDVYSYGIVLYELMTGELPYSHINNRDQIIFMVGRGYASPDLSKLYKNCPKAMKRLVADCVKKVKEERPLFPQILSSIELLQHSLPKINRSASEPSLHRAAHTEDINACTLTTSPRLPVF", "sequence (P63104 whole entry partner)": "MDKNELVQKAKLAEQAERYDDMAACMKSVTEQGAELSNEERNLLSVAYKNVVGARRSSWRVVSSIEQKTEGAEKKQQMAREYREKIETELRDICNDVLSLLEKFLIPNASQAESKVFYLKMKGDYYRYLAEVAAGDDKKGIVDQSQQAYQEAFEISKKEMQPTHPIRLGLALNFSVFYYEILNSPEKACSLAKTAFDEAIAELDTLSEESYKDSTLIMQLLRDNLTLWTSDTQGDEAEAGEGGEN", "test": "In vitro Raf activity determination, AlphaScreen p-MEK readout, c-Raf (C-Raf FL)", "type": "biochemical", "conditions": "c-Raf approximately 4 nM, ATP 1 μM, pre-incubation 60 minutes, reaction 1 hour", "outline": "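Full-length C-Raf (~4 nM) pre-incubated 60 min at room temperature with compound and kinase-dead biotinylated MEK1 (~10 nM) in Tris pH 7.5, 15 mM MgCl2, BSA, DTT. Reaction started with 1 μM ATP and run 1 h at room temperature. Phospho-MEK detected by AlphaScreen with anti-p-MEK antibody.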"}
{"smiles": "CCN1Cc2nncn2-c2cc(-c3cc(NC(=O)c4ccnc(C(F)(F)F)c4)ccc3C)cnc2C1=O", "note": "[Example 241, N-(3-(5-ethyl-6-oxo-5,6-dihydro-4H-pyrido[2,3-f][1,2,4]-triazolo[4,3-a][1,4]diazepin-9-yl)-4-methylphenyl)-2-(trifluoromethyl) isonicotinamide]", "pIC50": 8.02}
{"smiles": "CCN1C(=O)N2COCCC2(C)c2cc(-c3cc(NC(=O)c4ccnc(C(F)(F)F)c4)ccc3C)ccc21", "note": "(centres unmarked) [Example 242, N-(3-(7-ethyl-11b-methyl-6-oxo-1,2,4,6,7,11b-hexahydro-[1,3]oxazino[3,4-c]quinazolin-10-yl)-4-methylphenyl)-2-(trifluoromethyl) isonicotinamide]", "pIC50": 9.52}
{"smiles": "CCN1C(=O)N2COCCC2(C)c2cc(-c3cc(NC(=O)c4cccc(C(F)(F)F)c4)cnc3C)ccc21", "note": "(centres unmarked) [Example 243]", "pIC50": 9.22}
{"smiles": "CCN1C(=O)N2COCCC2(C)c2cc(-c3cc(NC(=O)c4ccnc(C(F)(F)F)c4)ccc3C)ccc21", "note": "(centres unmarked) [Example 244, N-(3-(7-ethyl-11b-methyl-6-oxo-1,2,4,6,7,11b-hexahydro-[1,3]oxazino[3,4-c]quinazolin-10-yl)-4-methylphenyl)-2-(trifluoromethyl) isonicotinamide]", "pIC50": 10.00}
{"smiles": "CCN1C(=O)N2COCCC2(C)c2cc(-c3cc(NC(=O)c4cccc(C(F)(F)F)c4)cnc3C)ccc21", "note": "(centres unmarked) [Example 245, N-(5-(7-ethyl-11b-methyl-6-oxo-1,2,4,6,7,11b-hexahydro-[1,3]oxazino[3,4-c]quinazolin-10-yl)-6-methylpyridin-3-yl)-3-(trifluoromethyl) benzamide]", "pIC50": 9.70}
{"smiles": "CCN1C(=O)C2CCOCCC2c2cc(-c3cc(NC(=O)c4ccnc(C(F)(F)F)c4)ccc3C)cnc21", "note": "(stereo not drawn) [Example 246, N-(3-((5a, 11b-cis)-7-ethyl-6-oxo-1,2,4,5,5a,6,7,11b-octahydrooxepino [4,5-c][1,8]naphthyridin-10-yl)-4-methylphenyl)-2-(trifluoromethyl) isonicotinamide]", "pIC50": 9.70}
{"smiles": "CCN1C(=O)C2CCOCCC2c2cc(-c3cc(NC(=O)c4ccnc(C(F)(F)F)c4)ccc3C)cnc21", "note": "(stereo not drawn) [Example 247, N-(3-((5a, 11b-cis)-7-ethyl-6-oxo-1,2,4,5,5a,6,7,11b-octahydrooxepino 4,5-c][1,8]naphthyridin-10-yl)-4-methylphenyl)-2-(trifluoromethyl) isonicotinamide]", "pIC50": 9.52}
{"smiles": "CCN1C(=O)C2CCOCCC2c2cc(-c3cc(NC(=O)c4ccnc(C(F)(F)F)c4)ccc3C)cnc21", "note": "(centres unmarked) [Example 248]", "pIC50": 9.30}
{"smiles": "CCN1C(=O)C2CCOCCC2c2cc(-c3cc(NC(=O)c4ccnc(C(F)(F)F)c4)ccc3C)cnc21", "note": "(stereo not drawn) [Example 249, N-(3-((5a, 11b- trans)-7-ethyl-6-oxo-1,2,4,5,5a,6,7,11boctahydrooxepino [4,5-c][1,8]naphthyridin-4,5-10-yl)-4-methylphenyl)-2-(trifluoromethyl) isonicotinamide]", "pIC50": 10.00}
{"smiles": "CCN1C(=O)C2CCOCCC2c2cc(-c3cc(NC(=O)c4cccc(C(F)(F)F)c4)cnc3C)cnc21", "note": "(stereo not drawn) [Example 250, N-(5-((5a, 11b- trans)-7-ethyl-6-oxo-1,2,4,5,5a,6,7,11b-octahydrooxepino [4,5-c][1,8]naphthyridin-10-yl)-6-methylpyridin-3-yl)-3-(trifluoromethyl) benzamide]", "pIC50": 9.52}
{"smiles": "CCN1C(=O)C2CCOCCC2c2cc(-c3cc(NC(=O)c4ccnc(C(C)(C)F)c4)cnc3C)cnc21", "note": "(stereo not drawn) [Example 251, N-(5-((5a, 11b- trans)-7-ethyl-6-oxo-1,2,4,5,5a, 6,7,11b-octahydrooxepino [4,5-c[1,8]naphtliyridin-10-yl)-6-methylpyridin-3-yl)-2-(2-fluoropropan-2-yl)isonicotinamide]", "pIC50": 9.70}
{"smiles": "CCN1C(=O)[C@@H]2COCC[C@H]2c2cc(-c3cc(NC(=O)c4ccnc(C(F)(F)F)c4)cnc3C)cnc21", "note": "[Example 252, N-(5-((4aS, 10bR)-6-ethyl-5-oxo-2,4,4a,5,6,10b-hexahydro-1H-pyrano[3,4-c][1,8]naphthyridin-9-yl)-6-methylpyridin-3-yl)-2-(trifluoromethyl) isonicotinamide]", "pIC50": 10.00}
{"smiles": "CCN1C(=O)[C@@H]2COCC[C@H]2c2cc(-c3cc(NC(=O)c4ccnc(C(F)(F)F)c4F)ccc3C)cnc21", "note": "[Example 253, N-(3-((4aS, 10bR)-6-ethyl-5-oxo-2,4,4a,5,6,10b-hexahydro-1H-pyrano[3,4-c][1,8]naphthyridin 9-yl)-4-methylphenyl)-3-fluoro-2-(trifluoromethyl) isonicotinamide]", "pIC50": 8.49}
{"smiles": "CCN1C(=O)[C@@H]2COCC[C@H]2c2cc(-c3cc(NC(=O)c4ccnc(C(C)(C)F)c4)ccc3C)cnc21", "note": "[Example 254, N-(3-((4aS, 10bR)-6-ethyl-5-oxo-2,4,4a,5,6,10b-hexahydro-1H-pyrano[3,4-c][1,8]naphthyridin-9-yl)-4-methylphenyl)-2-(2-fluoropropan-2-yl)isonicotinamide]", "pIC50": 9.70}
{"smiles": "CCN1C(=O)[C@H]2COCC[C@@H]2c2cc(-c3cc(NC(=O)c4cccc(C(F)(F)F)c4F)cnc3C)cnc21", "note": "[Example 255, N-(5-((4aR, 10bS)-6-ethyl-5-oxo-2,4,4a,5,6,10b-hexahydro-1H-pyrano[3,4-c][1,8]naphthyridin-9-yl)-6-methylpyridin-3-yl)-2-fluoro-3-(trifluoromethyl) benzamide]", "pIC50": 9.10}
{"smiles": "CCN1C(=O)[C@@H]2COCC[C@H]2c2cc(-c3cc(NC(=O)c4cccc(C(F)(F)F)c4F)cnc3C)cnc21", "note": "[Example 256, N-(5-((4aS, 10bR)-6-ethyl-5-oxo-2,4,4a,5,6,10b-hexahydro-1H-pyrano[3,4-c][1,8]naphthyridin-9-yl)-6-methylpyridin-3-yl)-2-fluoro-3-(trifluoromethyl) benzamide]", "pIC50": 10.00}
{"smiles": "Cc1ncc(NC(=O)c2cccc(C(F)(F)F)c2)cc1-c1cnc2c(c1)[C@@H]1CCOC[C@H]1C(=O)N2CCO", "note": "[Example 259, N-(5-((4aS, 10bR)-6-(2-hydroxyethyl)-5-oxo-2,4,4a,5,6,10b-hexahydro-1H-pyrano[3,4-c][1,8]naphthyridin-9-yl)-6-methylpyridin-3-yl)-3-(trifluoromethyl) benzamide]", "pIC50": 9.22}
{"smiles": "Cc1ncc(NC(=O)c2ccnc(C(C)(C)F)c2)cc1-c1cnc2c(c1)[C@@H]1CCOC[C@H]1C(=O)N2CCO", "note": "[Example 260, 2-(2-fluoropropan-2-yl)-N-(5-((4aS, 10bR)-66-(2-hydroxyethyl)-5-oxo-2,4,4a,5,6,10b-hexahydro-1H-pyrano[3,4-c][1,8]naphthyridin-9-yl)-6-methylpyridin-3-yl)isonicotinamide]", "pIC50": 10.00}
{"smiles": "Cc1ccc(NC(=O)c2ccnc(C(F)(F)F)c2)cc1-c1cnc2c(c1)[C@@H]1CCOC[C@H]1C(=O)N2C(C)C", "note": "[Example 261, N-(3-((4aS, 10bR)-6-isopropyl-5-oxo-2,4,4a,5,6,10b-hexahydro-1H-pyrano[3,4-c][1,8]naphthyridin-9-yl)-4-methylphenyl)-2 (trifluoromethyl) isonicotinamide]", "pIC50": 9.70}
{"smiles": "Cc1ncc(NC(=O)c2cccc(C(F)(F)F)c2)cc1-c1cnc2c(c1)[C@@H]1CCOC[C@H]1C(=O)N2C(C)C", "note": "[Example 262, N-(5-((4aS, 10bR)-6-isopropyl-5-oxo-2,4,4a,5,6,10b-hexahydro-1H-pyrano[3,4-c][1,8]naphthyridin-9-yl)-6-methylpyridin-3-yl)-3-(trifluoromethyl) benzamide]", "pIC50": 9.15}
{"smiles": "Cc1ccc(NC(=O)c2ccnc(C(C)(F)F)c2)cc1-c1cnc2c(c1)[C@@H]1CCOC[C@H]1C(=O)N2C(C)C", "note": "[Example 263, 2-(1,1-difluoroethyl)-N-(3-((4aS, 10bR)-6-isopropyl-5-oxo-2,4,4a,5,6,10b-hexahydro-1H-pyrano[3,4-c][1,8]naphthyridin-9-yl)-4-methylphenyl) isonicotinamide]", "pIC50": 9.52}
{"smiles": "Cc1ccc(NC(=O)c2ccnc(C(C)(F)F)c2)cc1-c1cnc2c(c1)[C@@H]1CCOC[C@H]1C(=O)N2CC(F)F", "note": "[Example 265, 2-(1,1-difluoroethyl)-N-(3-((4aS, 10bR)-6-(2,2-difluoroethyl)-5-oxo-2,4,4a,5,6,10b-hexahydro-1H-pyrano[3,4-c][1,8]naphthyridin-9-yl)4-methylphenyl) isonicotinamide]", "pIC50": 10.00}
{"smiles": "Cc1ncc(NC(=O)c2cccc(C(F)(F)F)c2)cc1-c1cnc2c(c1)[C@@H]1CCOC[C@H]1C(=O)N2CC(F)F", "note": "[Example 266, N-(5-((4aS, 10bR)-6-(2,2-difluoroethyl)-5-oxo-2,4,4a,5,6,10b-hexahydro-1H-pyrano[3,4-c][1,8]naphthyridin-9-yl)-6-methylpyridin-3-yl)-3-(trifluoromethyl) benzamide]", "pIC50": 9.52}
{"smiles": "CCN1C(=O)[C@@H]2[C@H]3COC[C@H]3[C@@H]2c2cc(-c3cc(NC(=O)c4ccnc(C(C)(F)F)c4)ccc3C)cnc21", "note": "[Example 269, 2-(1,1-difluoroethyl)-N-(3-((6aS, 6bS, 9aS, 9bS)-5-ethyl-6-oxo-5,6,6a,6b,7,9,9a,9b-octahydrofuro[3′,4′: 3,4]cyclobuta[1,2-c][1,8]naphthyridin-2-yl)-4-methylphenyl) isonicotinamide]", "pIC50": 9.52}
{"smiles": "CCN1C(=O)[C@H]2[C@@H]3COC[C@@H]3[C@H]2c2cc(-c3cc(NC(=O)c4ccnc(C(F)(F)F)c4)ccc3C)cnc21", "note": "[Example 270, N-(3-((6aR, 6bR, 9aR, 9bR)-5-ethyl-6-oxo-5,6,6a,6b,7,9,9a,9b-octahydrofuro[3′,4′: 3,4]cyclobuta[1,2-c][1,8]naphthyridin-2-yl)-4-methylphenyl)-2-(trifluoromethyl) isonicotinamide]", "pIC50": 9.70}
{"smiles": "CCN1C(=O)[C@H]2[C@@H]3COC[C@@H]3[C@H]2c2cc(-c3cc(NC(=O)c4ccnc(C(C)(F)F)c4)ccc3C)cnc21", "note": "[Example 271, 2-(1,1-difluoroethyl)-N-(3-((6aR, 6bR, 9aR, 9bR)-5-ethyl-6-oxo-5,6,6a,6b,7,9,9a,9b-octahydrofuro[3′,4′: 3,4]cyclobuta[1,2-c][1,8]naphthyridin 2-yl)-4-methylphenyl) isonicotinamide]", "pIC50": 9.70}
